The text below walks through data of US20210395256A1, “TYROSINE KINASE INHIBITORS, COMPOSITIONS AND METHODS THERE OF” (Betta Pharmaceuticals Co., Ltd., priority 2018, published 2021).

Chain of TrkA kinase (P04629 33-796): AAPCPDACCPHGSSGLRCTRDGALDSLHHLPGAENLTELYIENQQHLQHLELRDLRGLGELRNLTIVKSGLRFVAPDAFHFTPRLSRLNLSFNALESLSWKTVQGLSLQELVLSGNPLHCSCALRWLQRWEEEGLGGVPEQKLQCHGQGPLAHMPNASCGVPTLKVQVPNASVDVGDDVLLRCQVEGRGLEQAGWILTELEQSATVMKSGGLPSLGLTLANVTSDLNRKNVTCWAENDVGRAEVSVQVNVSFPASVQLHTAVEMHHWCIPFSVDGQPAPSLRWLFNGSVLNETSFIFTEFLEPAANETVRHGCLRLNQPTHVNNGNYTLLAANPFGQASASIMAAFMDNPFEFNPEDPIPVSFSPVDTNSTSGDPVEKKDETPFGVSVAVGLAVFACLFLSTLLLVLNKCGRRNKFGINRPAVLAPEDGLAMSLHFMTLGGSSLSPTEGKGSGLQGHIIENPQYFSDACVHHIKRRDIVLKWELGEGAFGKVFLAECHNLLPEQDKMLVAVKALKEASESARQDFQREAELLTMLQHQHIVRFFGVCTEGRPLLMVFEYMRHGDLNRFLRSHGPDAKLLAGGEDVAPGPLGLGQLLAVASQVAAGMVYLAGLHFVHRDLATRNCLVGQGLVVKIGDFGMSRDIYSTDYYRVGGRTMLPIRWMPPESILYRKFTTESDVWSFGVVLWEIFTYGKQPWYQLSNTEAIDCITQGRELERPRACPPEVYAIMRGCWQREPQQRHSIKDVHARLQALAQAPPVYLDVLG

One test deals with TrkA kinase (Homo sapiens, UniProt P04629). As to the kind of experiment: TrkA kinase assay (mobility shift assay). The class given is biochemical. To be noted: class symbols; read-out: Trk A Kinase IC50. The method, then:
Example 201 TrkA Kinase Assay
Mobility shift assay was used to determine the inhibitory activity of compounds against TrkA kinase. Assay procedures are as follows:
1× Kinase base buffer (50 mM HEPES, pH 7.5; 0.0015% Brij-35)
Stop buffer (100 mM HEPES, pH 7.5; 0.015% Brij-35; 0.2% Coating Reagent #3; 50 mM EDTA)
1) Dilute the compound to 50× of the final desired highest inhibitor concentration in reaction by 100% DMSO. Transfer 100 μl of this compound dilution to a well in a 96-well plate.
2) For all compounds, transfer the compound in tubes to one well on 96-well storage plate and serially dilute the compound by transferring 30 μl to 60 μl of 100% DMSO in the next well and so forth for a total of 10 concentrations.
3) Add 100 μl of 100% DMSO to two empty wells for no compound control and no enzyme control in the same 96-well plate. Mark the plate as source plate.
4) Prepare intermediate plate
Transfer 10 μl of compound from source plate to a new 96-well plate as the intermediate plate
Add 90 µl of 1× kinase buffer to each well of the intermediate plate.
Mix the compounds in intermediate plate for 10 min on shaker.
1) Transfer 5 μl of each well from the 96-well intermediate plate to a 384-well plate in duplicates. For example, A1 of the 96-well plate is transferred to A1 and A2 of the 384-well plate. A2 of the 96-well plate is transferred to A3 and A4 of the 384-well plate, and so on.
1) Prepare 2.5× enzyme solution
Add kinase in 1× kinase base buffer.
2) Prepare 2.5× peptide solution Add FAM-labeled peptide and ATP in the 1× kinase base buffer.
3) Assay plate already contains 5 μl of compound in 10% DMSO.
4) Transfer 2.5× enzyme solution to the assay plate
Add 10 μl of 2.5× enzyme solution to each well of the 384-well assay plate.
5) Incubate at room temperature for 10 min.
6) Transfer 2.5× peptide solution to the assay plate
Add 10 μl of 2.5× peptide solution to each well of the 384-well assay plate.
Kinase reaction conditions are shown as Table 11:
7) Kinase reaction and stop
Incubate at 28° C. for specified period of time.
Add 25 μl of stop buffer to stop reaction.
1) Copy conversion data from Caliper program.
2) Convert conversion values to inhibition values.
Percent inhibition=(max-conversion)/(max-min)*100.
“max” stands for DMSO control; “min” stands for low control.
3) Fit the data in XLFit excel add-in version 5.4.0.8 to obtain IC50 values.
Equation used is: Y=Bottom+(Top-Bottom)/(1+(IC50/X)^HillSlope)
For `Fc1ccc(F)c([C@H]2CCCN2c2ccn3ncc(-c4nc5cnccc5s4)c3n2)c1` [Compound 75, (R)-2-(5-(2-(2,5-difluorophenyl)pyrrolidin-1-yl)pyrazolo[1,5-a]pyrimidin-3-yl)thiazolo[4,5-c]pyridine], the IC50 was no more than 10 nM.

Consider `Fc1ccc(F)c([C@H]2CCCN2c2ccn3ncc(-c4nc5cc6c(cc5[nH]4)OCCOCCOCCO6)c3n2)c1` [Compound 82, (R)-2-(5-(2-(2,5-difluorophenyl)pyrrolidin-1-yl)pyrazolo[1,5-a]pyrimidin-3-yl)-6,7,9,10,12,13-hexahydro-1H-[1,4,7,10]tetraoxacyclododecino[2′,3′:4,5]benzo[1,2-d]imidazole], for which the IC50 is 10 to 50 nM.

In the case of `Cn1c(-c2cnn3ccc(N4CCC[C@@H]4c4cc(F)ccc4F)nc23)nc2cc3c(cc21)OCCO3` [Compound 83, (R)-2-(5-(2-(2,5-difluorophenyl)pyrrolidin-1-yl)pyrazolo[1,5-a]pyrimidin-3-yl)-1-methyl-6,7-dihydro-1H-[1,4]dioxino[2′,3′:4,5]benzo[1,2-d]imidazole], the IC50 is greater than 50 nM.

Regarding `COc1cc2nc(-c3cnn4ccc(N5CCC[C@@H]5c5cc(F)ccc5F)nc34)[nH]c2cc1C(=O)NO` [Compound 89, (R)-2-(5-(2-(2,5-difluorophenyl)pyrrolidin-1-yl)pyrazolo[1,5-a]pyrimidin-3-yl)-N-hydroxy-5-methoxy-1H-benzo[d]imidazole-6-carboxamide], the IC50 lay within 10 to 50 nM.

In the case of `CC(O)c1cc2nc(-c3cnn4ccc(N5CCC[C@@H]5c5cc(F)ccc5F)nc34)oc2cc1F` (stereo partly drawn) [Compound 93, 1-(2-(5-((R)-2-(2,5-difluorophenyl)pyrrolidin-1-yl)pyrazolo[1,5-a]pyrimidin-3-yl)-6-fluorobenzo[d]oxazol-5-yl)ethan-1-ol], the IC50 is no more than 10 nM.

The same test, now with this note: numeric values; read-out: Trk A Kinase IC50.
For the compound `Fc1ccc(F)c([C@H]2CCCN2c2ccn3ncc(-c4nc5cc(C(F)(F)F)ncc5[nH]4)c3n2)c1` [Compound 72, (R)-2-(5-(2-(2,5-difluorophenyl)pyrrolidin-1-yl)pyrazolo[1,5-a]pyrimidin-3-yl)-6-(trifluoromethyl)-3H-imidazo[4,5-c]pyridine], the IC50 was determined as 1.4 nM.

As for `Fc1ccc(F)c([C@H]2CCCN2c2ccn3ncc(-c4nc5cnccc5o4)c3n2)c1` [Compound 73, (R)-2-(5-(2-(2,5-difluorophenyl)pyrrolidin-1-yl)pyrazolo[1,5-a]pyrimidin-3-yl)oxazolo[4,5-c]pyridine], the IC50 worked out at 0.59 nM.

Turning to `Fc1ccc(F)c([C@H]2CCCN2c2ccn3ncc(-c4nc5ccc(F)cc5[nH]4)c3n2)c1` [Compound 74, (R)-5-(2-(2,5-difluorophenyl)pyrrolidin-1-yl)-3-(6-fluoro-1H-benzo[d]imidazol-2-yl)pyrazolo[1,5-a]pyrimidine], the IC50 stood at 0.96 nM.

As to `COc1ccc2nc(-c3cnn4ccc(N5CCC[C@@H]5c5cc(F)ccc5F)nc34)[nH]c2c1` [Compound 77, (R)-5-(2-(2,5-difluorophenyl)pyrrolidin-1-yl)-3-(6-methoxy-1H-benzo[d]imidazol-2-yl)pyrazolo[1,5-a]pyrimidine], the IC50 stood at 0.7 nM.

As for `COc1cc2nc(-c3cnn4ccc(N5CCC[C@@H]5c5cc(F)ccc5F)nc34)[nH]c2cc1OC` [Compound 78, (R)-5-(2-(2,5-difluorophenyl)pyrrolidin-1-yl)-3-(5,6-dimethoxy-1H-benzo[d]imidazol-2-yl)pyrazolo[1,5-a]pyrimidine], the IC50 amounted to 0.73 nM.

For `Fc1ccc(F)c([C@H]2CCCN2c2ccn3ncc(-c4nc5ccc(OC(F)F)cc5[nH]4)c3n2)c1` [Compound 81, (R)-3-(6-(difluoromethoxy)-1H-benzo[d]imidazol-2-yl)-5-(2-(2,5-difluorophenyl)pyrrolidin-1-yl)pyrazolo[1,5-a]pyrimidine], the IC50 was found to be 2.18 nM.

As to `COc1ccc2nc(-c3cnn4ccc(N5CCC[C@@H]5c5cc(F)ccc5F)nc34)[nH]c2n1` [Compound 84, (R)-2-(5-(2-(2,5-difluorophenyl)pyrrolidin-1-yl)pyrazolo[1,5-a]pyrimidin-3-yl)-5-methoxy-3H-imidazo[4,5-b]pyridine], the IC50 is 0.18 nM.

As to `COc1cc2[nH]c(-c3cnn4ccc(N5CCC[C@@H]5c5cc(F)ccc5F)nc34)nc2cn1` [Compound 85, (R)-2-(5-(2-(2,5-difluorophenyl)pyrrolidin-1-yl)pyrazolo[1,5-a]pyrimidin-3-yl)-6-methoxy-1H-imidazo[4,5-c]pyridine], the IC50 was found to be 0.31 nM.

In the case of `Cc1cc2[nH]c(-c3cnn4ccc(N5CCC[C@@H]5c5cc(F)ccc5F)nc34)nc2cn1` [Compound 86, (R)-2-(5-(2-(2,5-difluorophenyl)pyrrolidin-1-yl)pyrazolo[1,5-a]pyrimidin-3-yl)-6-methy1-1H-imidazo[4,5-c]pyridine], the IC50 worked out at 0.76 nM.

As to `Nc1ncnc2nc(-c3cnn4ccc(N5CCC[C@@H]5c5cc(F)ccc5F)nc34)[nH]c12` [Compound 87, (R)-8-(5-(2-(2,5-difluorophenyl)pyrrolidin-1-yl)pyrazolo[1,5-a]pyrimidin-3-yl)-7H-purin-6-amine], the IC50 was 0.73 nM.

For `Oc1ncnc2nc(-c3cnn4ccc(N5CCC[C@@H]5c5cc(F)ccc5F)nc34)[nH]c12` [Compound 88, (R)-8-(5-(2-(2,5-difluorophenyl)pyrrolidin-1-yl)pyrazolo[1,5-a]pyrimidin-3-yl)-7H-purin-6-ol], the IC50 was determined as 0.77 nM.

As to `COc1cc2nc(-c3cnn4ccc(N5CCC[C@@H]5c5cc(F)ccc5F)nc34)[nH]c2cc1C(N)=O` [Compound 91, (R)-2-(5-(2-(2,5-difluorophenyl)pyrrolidin-1-yl)pyrazolo[1,5-a]pyrimidin-3-yl)-5-methoxy-1H-benzo[d]imidazole-6-carboxamide], the IC50 turned out to be 0.26 nM.

In the case of `Fc1ccc(F)c([C@H]2CCCN2c2ccn3ncc(-c4nc5cccc(Cl)c5[nH]4)c3n2)c1` [Compound 97, (R)-3-(7-chloro-1H-benzo[d]imidazol-2-yl)-5-(2-(2,5-difluorophenyl)pyrrolidin-1-yl)pyrazolo[1,5-a]pyrimidine], the IC50 was found to be 1.9 nM.

On to `Fc1ccc(F)c([C@H]2CCCN2c2ccn3ncc(-c4nc5cc(F)cc(Cl)c5[nH]4)c3n2)c1` [Compound 98, (R)-3-(7-chloro-5-fluoro-1H-benzo[d]imidazol-2-yl)-5-(2-(2,5-difluorophenyl)pyrrolidin-1-yl)pyrazolo[1,5-a]pyrimidine], for which the IC50 amounted to 8.8 nM.

For `Cc1cncc2nc(-c3cnn4ccc(N5CCC[C@@H]5c5cc(F)ccc5F)nc34)[nH]c12` [Compound 99, (R)-2-(5-(2-(2,5-difluorophenyl)pyrrolidin-1-yl)pyrazolo[1,5-a]pyrimidin-3-yl)-7-methyl-1H-imidazo[4,5-c]pyridine], the IC50 was 0.5 nM.

With `COc1cccc2oc(-c3cnn4ccc(N5CCC[C@@H]5c5cc(F)ccc5F)nc34)nc12` [Compound 100, (R)-2-(5-(2-(2,5-difluorophenyl)pyrrolidin-1-yl)pyrazolo[1,5-a]pyrimidin-3-yl)-4-methoxybenzo[d]oxazole], the IC50 was determined as 1 nM.

In the case of `Fc1ccc(F)c([C@H]2CCCN2c2ccn3ncc(-c4nc5ncc(Cl)c(Cl)c5[nH]4)c3n2)c1` [Compound 102, (R)-6,7-dichloro-2-(5-(2-(2,5-difluorophenyl)pyrrolidin-1-yl)pyrazolo[1,5-a]pyrimidin-3-yl)-1H-imidazo[4,5-b]pyridine], the IC50 was found to be 7 nM.

As for `Cc1nccc2nc(-c3cnn4ccc(N5CCC[C@@H]5c5cc(F)ccc5F)nc34)[nH]c12` [Compound 103, (R)-2-(5-(2-(2,5-difluorophenyl)pyrrolidin-1-yl)pyrazolo[1,5-a]pyrimidin-3-yl)-4-methyl-3H-imidazo[4,5-c]pyridine], the IC50 came out at 1.2 nM.

With `Fc1ccc(F)c([C@H]2CCCN2c2ccn3ncc(-c4nc5c(Cl)ccc(Cl)c5[nH]4)c3n2)c1` [Compound 104, (R)-3-(4,7-dichloro-1H-benzo[d]imidazol-2-yl)-5-(2-(2,5-difluorophenyl)pyrrolidin-1-yl)pyrazolo[1,5-a]pyrimidine], the IC50 turned out to be 13.5 nM.

With `Fc1ccc(F)c([C@H]2CCCN2c2ccn3ncc(-c4nc5cc(Cl)c(Cl)cc5[nH]4)c3n2)c1` [Compound 105, (R)-3-(5,6-dichloro-1H-benzo[d]imidazol-2-yl)-5-(2-(2,5-difluorophenyl)pyrrolidin-1-yl)pyrazolo[1,5-a]pyrimidine], the IC50 was 32.9 nM.

By IC50 is commonly meant the point on the concentration scale where inhibition reaches its midpoint.
